Results on two compounds are retold here after ChEMBL document CHEMBL1649312, “Absence of association between piperaquine in vitro responses and polymorphisms in the pfcrt, pfmdr1, pfmrp, and pfnhe genes in Plasmodium falciparum” (Antimicrob Agents Chemother, 2010).

The IC50 is the concentration needed to halve the response being measured.

Assay type in all cases: functional, organism-based
Test [1] concerns Plasmodium falciparum. Nature of the test: Antimalarial activity against Plasmodium falciparum IMT 16332 assessed as inhibition of [3H] incorporation after 48 hrs by scintillation counter.
Test [2] relates to Plasmodium falciparum. Nature of the test: Antimalarial activity against Plasmodium falciparum IMT Vol harboring Ppcrt M74I, N75E, K76T, A220S, Q271E, N326S mutant gene, Pmdr1 N86Y mutant gene and Pfmrp H191Y and S437A mutant gene assessed as incorporation of [3]H hypoxanthine after 48 hrs by scintillation counter.
Test [3] concerns Plasmodium falciparum. The test can be described thus: Antimalarial activity against Plasmodium falciparum IMT Vol assessed as inhibition of [3H] incorporation after 48 hrs by scintillation counter.
In test [4] the test system is Plasmodium falciparum. The test can be described thus: Antimalarial activity against Plasmodium falciparum 3D7 harboring Ppcrt I371R mutant gene and Pfnhe-1 ms4760 microsatellite mutant assessed as incorporation of [3]H hypoxanthine after 48 hrs by scintillation counter. Particulars: 3D7, 48 h.
Test [5] has as its system Plasmodium falciparum. Nature of the test: Antimalarial activity against Plasmodium falciparum W2 harboring Ppcrt M74I, N75E, K76T, A220S, Q271E, N326S and I356T mutant gene, Pmdr1 N86Y mutant gene and Pfmrp H191Y and S437A mutant gene assessed as incorporation of [3]H hypoxanthine after 48 hrs by scintillation counter. Particulars: W2, 48 h.
Test [6] relates to Plasmodium falciparum. The test can be described thus: Antimalarial activity against Plasmodium falciparum D6 harboring Ppcrt I371R mutant gene assessed as incorporation of [3]H hypoxanthine after 48 hrs by scintillation counter. The conditions noted are these: D6, 48 h.
Test [7] relates to Plasmodium falciparum. Nature of the test: Antimalarial activity against Plasmodium falciparum IMT 8425 harboring Ppcrt I371R mutant gene and Pfnhe-1 ms4760 microsatellite mutant assessed as incorporation of [3]H hypoxanthine after 48 hrs by scintillation counter. The conditions noted are these: IMT 8425, 48 h.
Test [8] deals with Plasmodium falciparum. Nature of the test: Antimalarial activity against Plasmodium falciparum IMT K4 assessed as inhibition of [3H] incorporation after 48 hrs by scintillation counter.
The subject of test [9] is Plasmodium falciparum. The test can be described thus: Antimalarial activity against Plasmodium falciparum D6 assessed as inhibition of [3H] incorporation after 48 hrs by scintillation counter.
Test [10] deals with Plasmodium falciparum. The test can be described thus: Antimalarial activity against Plasmodium falciparum FCR3 assessed as inhibition of [3H] incorporation after 48 hrs by scintillation counter.
Test [11] concerns Plasmodium falciparum. The test can be described thus: Antimalarial activity against Plasmodium falciparum IMT 10354 assessed as inhibition of [3H] incorporation after 48 hrs by scintillation counter.
The subject of test [12] is Plasmodium falciparum. Nature of the test: Antimalarial activity against Plasmodium falciparum PA assessed as inhibition of [3H] incorporation after 48 hrs by scintillation counter.
In test [13] the test system is Plasmodium falciparum. Nature of the test: Antimalarial activity against Plasmodium falciparum HB3 harboring Ppcrt I371R mutant gene and Pfmdr1 Y184F mutant gene assessed as incorporation of [3]H hypoxanthine after 48 hrs by scintillation counter. The conditions noted are these: HB3, 48 h.
For test [14], the system named is Plasmodium falciparum. The test can be described thus: Antimalarial activity against Plasmodium falciparum IMT 9881 assessed as inhibition of [3H] incorporation after 48 hrs by scintillation counter.
Test [15] deals with Plasmodium falciparum. Nature of the test: Antimalarial activity against Plasmodium falciparum IMT 8425 assessed as inhibition of [3H] incorporation after 48 hrs by scintillation counter.
Test [16] deals with Plasmodium falciparum. Nature of the test: Antimalarial activity against Plasmodium falciparum IMT Guy assessed as inhibition of [3H] incorporation after 48 hrs by scintillation counter.
Test [17] relates to Plasmodium falciparum. The test can be described thus: Antimalarial activity against Plasmodium falciparum HB3 assessed as inhibition of [3H] incorporation after 48 hrs by scintillation counter.
Test [18] concerns Plasmodium falciparum. Nature of the test: Antimalarial activity against Plasmodium falciparum 106/1 assessed as inhibition of [3H] incorporation after 48 hrs by scintillation counter.

Turning to `C[C@H]1[C@@H](O)O[C@@H]2O[C@@]3(C)CC[C@H]4[C@H](C)CC[C@@H]1[C@@]24OO3` [ARTENIMOL], the IC50 in test [1] came out at 1.1 nM; in test [2], 1.2 nM; in test [3], 1.2 nM; in [4], 2.8 nM; in [5], 3 nM; in test [6] it was 1.4 nM. In addition, the IC50 in test [7] amounted to 1.7 nM; in [8], 3.4 nM; in test [9], 1.4 nM; in test [10], 1.6 nM; in test [11] it was 0.4 nM; in test [12], 1.4 nM. Besides, the IC50 was found to be 3 nM in [13], 3.5 nM in test [14] and 1.7 nM in test [15].
For `Clc1ccc2c(N3CCN(CCCN4CCN(c5ccnc6cc(Cl)ccc56)CC4)CC3)ccnc2c1` [PIPERAQUINE], the IC50 in test [1] was determined as 48 nM; in test [2] it was 37 nM; in test [4] it was 58 nM; in [5], 52 nM; in test [6], 58 nM; in [7] it was 44 nM. The IC50 in test [16] was 63 nM; in test [8] it was 64 nM; in [9] it was 58 nM; in test [10] it was 53 nM; in [17], 55 nM; in test [11], 29 nM. The IC50 in test [18] amounted to 69 nM; in test [12] it was 80 nM; in test [13] it was 55 nM; in test [15], 44 nM.
